# What was measured:
# Type in all cases: in vivo, mouse
# C57BL/KsJ db/db mice [1] = assay: Blood glucose levels of db/db mice (antidiabetic activity); conditions: for Glucose: mean ± S.E.
# From the text: Mutations in laboratory animals have made it possible to develop models that present non-insulin-dependent diabetes associated with obesity, hyperlipidaemia and insulin resistance and that enable us to test the efficacy of new antidiabetic compounds (Reed and Scribner, Diabetes, obesity and metabolism 1: 75-86, 1999).
# A much used genetically diabetic mouse model is the C57BL/KsJ db/db mouse.
# The genetic basis of this model is a defect in the leptin receptor gene which gives rise to leptin resistance and leads to hyperphagia, obesity, hyperinsulinaemia and insulin resistance, with subsequent symptoms of insufficient insulin secretion and hyperglycaemia (Kodama et al., Diabetologia 37: 739-744, 1994; Chen et al., Cell 84: 491-495, 1996). Since hyperglycaemia is accompanied by obesity and insulin resistance, the db/db mouse has characteristics that are close to those of type 2 diabetes in man and is useful for assaying insulin-sensitising compounds.
# (§1) The C57BL/KsJ db/db mice used in the experiments were supplied by Jackson Lab (via Ch. River). After 10 days of acclimatisation in standard conditions (22±2° C.; 55±15% humidity; 15-20 air changes/hour; 12 hour light-darkness cycle with light from 7 a.m. to 7 p.m.) on a standard 4 RF21 diet (Mucedola), blood samples were taken in post-absorption conditions (fasting from 8.30 a.m. to 4.30 p.m.) from the caudal vein with the aid of a Jelco 22G catheter (Johnson and Johnson). Glucose, insulin, triglyceride, cholesterol, free fatty acid and urea levels were checked in the plasma to ensure well-matched distribution of the mice in the treatment groups.
# At the start of treatment, the body weight of the animals was checked and monitoring of the animals' consumption of water and feed was scheduled.
# (§2) The mice were divided into groups and treated orally twice daily with:
# (§3) Omega-3 fatty acid (EPA+DHA 1:1) 200 mg/kg;
# (§4) Omega-3 fatty acid (200 mg/kg)+simvastatin (100 mg/kg);
# (§5) Omega-3 fatty acid (200 mg/kg)+simvastatin (100 mg/kg); Coenzyme Q10 (50 mg/kg)+resveratrol (5 mg/kg)+policosanols (hexacosanol 25 mg/kg)+pantethine (100 mg/kg+selenium (0.5 μg/kg)+zinc (2.5 mg/kg).
# (§6) In the course of the experiment, serum glucose levels, glucose tolerance (OGTT), a number of lipid status variables and weight gain were monitored.
# C57BL/KsJ db/db mice [2] = assay: Plasma triglyceride levels of db/db mice; conditions: oral twice daily for 25 days, post-absorption condition, 7.30 hours after last treatment
# Description: (§7) The C57BL/KsJ db/db mice used in the experiments were supplied by Jackson Lab (via Ch. River). […] Glucose, insulin, triglyceride, cholesterol, free fatty acid and urea levels were checked in the plasma to ensure well-matched distribution of the mice in the treatment groups.
# as §2, §3, §4, §5, §6
# C57BL/KsJ db/db mice [3] = assay: Plasma HDL-cholesterol levels of db/db mice; conditions: oral twice daily for 25 days, post-absorption conditions, 7.30 hours after last treatment
# Description: as §1, §2, §3, §4, §5, §6
# C57BL/KsJ db/db mice [4] = assay: Oral glucose tolerance test (OGTT) in db/db mice; conditions: oral twice daily for 18 days, OGTT glucose 3 g/kg, fasted 18 hours, 5 hours after last treatment
# Description: as §7, §2, §3, §4, §5, §6
# C57BL/KsJ db/db mice [5] = assay: Plasma fructosamine levels of db/db mice; conditions: oral twice daily for 25 days, post-absorption condition, 7.30 hours after last treatment
# Description: as §1, §2, §3, §4, §5, §6
# [6] = oral twice daily for 12 days, feeding condition, approx. 15 hours after last treatment
# [7] = oral twice daily for 18 days, fasted for 18 hours, 5 hours after last treatment
structure (smiles),measurement,setting,value
CCC(C)(C)C(=O)O[C@H]1C[C@@H](C)C=C2C=C[C@H](C)[C@H](CC[C@@H]3C[C@@H](O)CC(=O)O3)[C@H]21 [Simvastatin],% Variation (glucose) vs control,C57BL/KsJ db/db mice [1]; [6],−7.6%
same,Glucose,C57BL/KsJ db/db mice [1]; [6],450 ± 21 mg/dL
same,Glucose,"C57BL/KsJ db/db mice [1]; oral twice daily for 12 days, post-absorption condition (fasting 9 a.m. to 5 p.m.), 8 hours after last treatment",419 ± 33 mg/dL
same,% Variation (glucose) vs control,"C57BL/KsJ db/db mice [1]; oral twice daily for 12 days, post-absorption condition, 8 hours after last treatment",1.2%
same,% Variation (glucose) vs control,C57BL/KsJ db/db mice [1]; [7],−5.5%
same,Glucose,C57BL/KsJ db/db mice [1]; [7],325 ± 27 mg/dL
same,Variation (triglycerides) vs control,C57BL/KsJ db/db mice [2],−16.5%
same,Triglycerides,C57BL/KsJ db/db mice [2]; mean ± S.E.,79.7 ± 5.1 mg/dL
same,% Variation (HDL-cholesterol) vs control,C57BL/KsJ db/db mice [3],−11.7%
same,HDL-cholesterol,C57BL/KsJ db/db mice [3]; mean ± S.E.,72.4 ± 4.6 mg/dL
same,"% Variation (AUC glucose, OGTT) vs control",C57BL/KsJ db/db mice [4],−5.9%
same,AUC Glucose (OGTT),C57BL/KsJ db/db mice [4]; mean ± S.E.,48174 ± 3555 u.a.
same,% Variation (fructosamine) vs control,C57BL/KsJ db/db mice [5],−2.5%
same,Fructosamine,C57BL/KsJ db/db mice [5]; mean ± S.E.,0.78 ± 0.12 mM
